Results: patent US20050049299A1, “Selective inhibitors of stat-3 activation and uses thereof” (priority 2003, published 2005)

How the values were obtained:
Type in all cases: cell-based, human
STAT3 phosphorylation [1] = assay: Constitutive STAT3 phosphorylation in MDA 1986LN cells (Western blot); settings: AG490 100 μM, 8 hrs
Method: TU167, MDA 1986LN, TU 686, MDA 686LN and JMAR cells (2×10^6 cells) were lysed and whole cell extracts (30 μg) were resolved on 7.5% SDS-PAGE, electrotransferred to a nitrocellulose membrane and probed for phosphorylated-STAT3 (p-STAT3) and total STAT3 proteins. […] MDA 1986LN cells (2×10^6 cells) were treated with curcumin (50 μM) for indicated durations or with indicated concentrations of curcumin for 1 h and levels of p-STAT3 (upper panels) and STAT3 (lower panels) were examined in whole cell extracts by Western blotting.
MDA 1986LN cells (2×10^6 cells) were treated with curcumin (50 μM) for the indicated durations (upper panels) or treated for 1 h and washed twice with PBS to remove curcumin before re-suspending in fresh medium. Cells were removed at indicated times and lysed to prepare the whole cell extract (lower panels). The whole cell extracts (30 μg) were resolved on 7.5% SDS-PAGE, electrotransferred to a nitrocellulose membrane, probed for the p-STAT3 (upper panels) and striped and reprobed for STAT3 (lower panels).
MDA 1986LN cells (2×10^6 cells) were treated with indicated concentrations of AG490 for 8 h and whole extracts prepared. These whole-cell extracts (30 μg) were resolved on 7.5% SDS-PAGE, electrotransferred to a nitrocellulose membrane, probed for p-STAT3 (upper panel), striped and reprobed for STAT3 (middle panel) and β-actin (lower panel). […] The cells were treated with AG490 (100 μM) for the indicated durations and whole cell extracts prepared and analyzed as mentioned earlier. FIG. 15C compares the effect of curcumin and AG490 on proliferation of MDA 1986LN cells by MTT assay.
Since STAT3 was constitutively phosphorylated in MDA 1986LN cells, the ability of curcumin to inhibit the constitutive STAT3 phosphorylation was examined. MDA 1986LN cells were treated either with curcumin (50 μM) for different durations or with different concentrations of curcumin for 1 h and the p-STAT3 levels and STAT3 levels were determined. Curcumin inhibited the constitutively active STAT3 in a time-(FIG. 11B) and a dose-(FIG. 11C) manner. This curcumin-induced inhibition could be observed as early as 30 min and with a concentration as low as 25 μM.
MDA 1986LN cells were treated with curcumin for indicated times or for 1 h and the cells were washed twice with PBS to remove curcumin. The cells were then cultured in media for various durations and the levels of phosphorylated STAT3 were determined. […] However, the STAT3 levels were unaffected by curcumin treatment.
The concentration and the exposure time for AG490 to inhibit STAT3 phosphorylation in MDA 1986LN cells were determined. These cells were incubated with either different concentrations of AG490 or with 100 μM of AG490 for different durations and the levels of p-STAT3 and STAT3 were assessed.

STAT3 phosphorylation [2] = assay: Constitutive STAT3 phosphorylation in U266 cells (Western blot)
Method: U266 cells (2×10^6) were treated with the indicated concentrations of curcumin for 1 h, or treated with 50 μM curcumin for the indicated durations and levels of phosphorylated-STAT3 (upper panel) and STAT3 (lower panel) were examined in whole cell extracts by Western Blotting. […] U266 cells (2×10^6) were treated with 50 μM curcumin for indicated durations, and examined for phosphorylated and nonphosphorylated-STAT3, and STAT5. […] U266 cells (2×10^6) were preincubated with curcumin (50 μM) for indicated durations before treatment with IFN-α (10 ng/ml) for additional 30 min and then examined for phosphorylated and nonphosphorylated-STAT1.
U266 cells (2×10^6 cells) were treated with 50 μM curcumin for the indicated durations (left panels) or treated for 1 h and washed with PBS two times to remove curcumin before resuspending in fresh medium. Cells were removed at indicated times and lysed to prepare the whole cell extract (right panels). Thirty micrograms of whole cell extracts were resolved on 7.5% SDS-PAGE, electrotransferred to a nitrocellulose membrane, probed for the phosphorylated-STAT3 (upper panels) and stripped and reprobed for STAT3 (middle panels) and β-actin (lower panels).
Thirty micrograms of whole-cell extract was resolved on 7.5% SDS-PAGE, electrotransferred to a nitrocellulose membrane, probed for the phospho-STAT3 (upper panel), stripped, and reprobed for STAT3 (middle panel) and β-actin (lower panel).
For detection of STAT proteins, whole-cell extracts were prepared by lysing the curcumin-treated cells in lysis buffer (20 mM Tris, pH 7.4, 250 mM NaCl, 2 mM EDTA, pH 8.0, 0.1% Triton-X100, 0.01 mg/ml aprotinin, 0.005 mg/ml leupeptin, 0.4 mM PMSF, and 4 mM NaVO4). Lysates were then spun at 14000 rpm for 10 min to remove insoluble material, and resolved on a 7.5% gel. After electrophoresis, the proteins were electrotransferred to a nitrocellulose membrane, blocked with 5% nonfat milk, and probed with anti-STAT antibodies (1:1000) overnight at 4° C. The blot was washed, exposed to HRP-conjugated secondary antibodies for 1 h, and finally examined by chemiluminescence (ECL, Amersham Pharmacia Biotech. Arlington Heights, Ill.).
Whether curcumin inhibits the constitutive STAT3 phosphorylation in U266 was investigated. U266 cells were incubated either with different concentrations of curcumin for 1 h or with 50 μM curcumin for different times. Curcumin inhibited the constitutively active STAT3 in a dose-(FIG. 1A) and time-(FIG. 1B) dependent manner. Curcumin-induced inhibition could be observed as early as 10 min and with a concentration as low as 10 μM.
Whether curcumin-induced inhibition of STAT3 phosphorylation was reversible was further examined. U266 cells were first treated for 60 min with curcumin, and then the cells were washed twice with PBS to remove curcumin. The cells were then cultured in the fresh medium for various durations, and the levels of phosphorylated STAT3 were measured.
In comparison, treatment of cells with 50 μM curcumin for 60 minutes was sufficient to inhibit STAT3 phosphorylation (see FIGS. 1A and 1B).

STAT3 phosphorylation [3] = assay: as above; remark: listed apart in the source
multiple myeloma cells = assay: Proliferation of multiple myeloma cells, curcumin vs AG490 (data not shown); settings: 100 μM, 24 hours (data not shown)

N#C/C(=C/c1ccc(O)c(O)c1)C(=O)NCc1ccccc1 [AG490]
inhibition of STAT3 phosphorylation (STAT3 phosphorylation [1]): completely inhibited
dose needed to suppress STAT3 phosphorylation (comparison AG490 vs curcumin) (STAT3 phosphorylation [2]): 100 µM
exposure needed to completely inhibit STAT3 phosphorylation (STAT3 phosphorylation [3]; 100 μM AG490): 8 h
dose needed to completely inhibit STAT3 phosphorylation (STAT3 phosphorylation [3]; 8 h): 100 µM
proliferation of multiple myeloma cells (multiple myeloma cells): no effect
